Assay: flavor descriptors of compounds tasted in salt water, chicken broth, IMP/MSG and NaCl/IMP/MSG solutions

Row | Structure (SMILES) | flavor descriptors, Chicken Broth College Inn 50% reduced Na; Fat free (compound 10 ppm in chicken broth) | flavor descriptors, NaCl 0.1% IMP 0.00359 g/L / MSG 0.0508 g/L (compound 10 ppm in NaCl/IMP/MSG solution) | flavor descriptors, IMP 0.00359 g/L / MSG 0.0508 g/L (compound 20 ppm in IMP/MSG solution)
1 | C#CCCCCCCCCCCCC(O)CC(O)COC(C)=O (stereo not drawn) [2,4-Dihydroxy-16-heptadecyn-1-yl acetate, 2,4-dihydroxy-16-heptadecyn-1-yl acetate] | Bitter | – | –
2 | C=CCCCCCCCCCCCC(O)CC(O)COC(C)=O (stereo not drawn) [2,4-dihydroxy-16-heptadecen-1-yl acetate] | – | Very umami | Nice umami
